Results: patent publication US20110281951A1, “Compositions and methods for treating amyloidosis” (priority 1999, published 2011)

How the values were obtained:
Type in all cases: biochemical
Aβ(1-40) = target: T1, Aβ(1-40) (Homo sapiens, UniProt P05067); assay: Circular dichroism analysis, pre-incubation assay, β-sheet at 218 nm; conditions: CD 218 nm, 0.02M Tris pH 7.4
T1 construct: Prepare a fresh 40 μm solution of Aβ(1-40) in 0.02M Tris, pH 7.4; made in house; host or cells: chemical synthesis (FMOC), HPLC purified
T1 sequence (P05067 672-711 limits assumed): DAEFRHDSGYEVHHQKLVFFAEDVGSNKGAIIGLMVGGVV
Experimental: The assay is conducted as follows:
Instrument: JASCO J-715 Spectropolarimeter.
Cell/cuvette: Hellma quartz (QS) with 1.0 mm pathlength Room temperature. Wavelength interval: 250 nm-190 nm.
Band width: 1.0 nm Response time: 1 sec Scanning speed: 20 nm/min Number of accumulations/spectrum: 5
1. Prepare a fresh 40 μm solution of Aβ(1-40) in 0.02M Tris, pH 7.4.
2. Prepare a 1 mM solution of test compounds in 0.02M Tris, pH 7.4.
3. Combine equal volumes of the Aβ(1-40) and test compound solutions.
4. Incubate the mixtures for 19 h.
5. Take the CD spectrum using the parameters above.
6. Return the mixtures to the incubator and incubate to 43 h.
7. Take the CD spectrum using the parameters above. • Inhibition of Aβ40 assembly/aggregation is determined by comparing the amount of b-sheet structure) appearing at lambda=218 nm) obtained in control and in treated sample at each timepoint.

IAPP [1] = target: T2, IAPP (Homo sapiens, UniProt P10997); assay: Thioflavine T spectroscopy, rate of amyloid fibril formation; conditions: ThT 62.5 μM; excitation 440 nm, emission 482 nm
T2 sequence (P10997 34-70 limits assumed): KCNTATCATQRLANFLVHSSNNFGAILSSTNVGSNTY
Experimental: Detection of ThT fluorescence can be used as a sensitive assay for amyloid fibril formation under different conditions. This assay has been used in experiments to determine the effects of compounds of the invention on amyloid fibril formation.
Human IAPP was dissolved in 40% trifluoroethanol and freeze-dried into conveniently-sized aliquots. IAPP was prepared immediately before the measurements by dissolving in 40% 1,1,1,3,3,3-hexafluoro-2-propanol (HFIP) in water to maintain the peptide in alpha helical conformation and soluble. A stock solution of ThT (2.5 mM) was prepared, 7.9 mg in 10 mL Tris-HCl pH 7.0 and filtered (0.22 μm). Solutions were kept in the dark until use. Fluorescence was examined at 440 nm excitation (slit 5 nm), and emission at 482 nm (slit 10 nm) with stirring. […] of ThT stock (final concentration 62.5 μM) was added to peptide sample and made up to 1 mL in the cuvette. The sample was stirred for 5 min. before taking a reading. Measurements were made at an initial time point (5 min. from sample preparation), at intervals over the next 4-6 h and after overnight incubation at room temperature.

IAPP [2] = target: T2, IAPP; assay: Circular dichroism analysis of IAPP-associated fibril formation (Example 7); design: add 10 μL of 10 mg/mL IAPP stock solution (final 100 ng peptide); conditions: for Conformation at 24 h / Conformation at 48 h / CD at 48 h / Conformation at T0 / CD at 24 h: molar ratio 1:5 peptide:compound; for CD at 48 h / CD at 24 h: more positive = less β-sheet; for Activity (change in ellipticity at 218 nm): molar ratio 1:10 peptide:compound
Experimental: Circular dichroism analysis was conducted to confirm the activity of certain therapeutic compounds in preventing or inhibiting IAPP-associated fibril formation in accordance with the present disclosure by determining the presence or absence of […] conformation.
Instrument: JASCO J-715 Spectropolarimeter
Cell cuvette: Hellma quartz (QS) with 1.0 mm pathlength
Wavelength interval: 250 nm-190 nm
Scanning speed: 20 nm/min
The assay, a co-incubation procedure, examines the ability of a compound or substance to inhibit the assembly of amyloid fibrils, e.g., to test for the presence of the amyloidotic β-sheet conformation in the presence of soluble IAPP. Samples are run in the presence and absence (i.e., water alone) of buffering agent, which is done to determine if competitive effects are seen with the ionic buffer (usually phosphate).
Add components used at a molar ratio of 1:10 [ peptide:compound]; add 10 μL of 10 mg/mL IAPP stock solution (final […] peptide) to the aqueous solution containing compound to a final volume of 400 μL. The pH of the final assay solution is measured to ensure there is no fluctuation and the spectrum is accumulated using the parameters as shown above.
Add desired amount of compound to achieve a 1:10 molar ratio in 10 mM phosphate buffer, pH 7. Add 10 μL of 10 mg/mL IAPP stock solution (final peptide 100 μg) to the phosphate buffered solution containing the compound and bring to a final volume of 400 μL. The pH of the final assay solution is measured to ensure there is no fluctuation and the spectrum is accumulated using the parameters as shown above.
In both assays, a control sample is run with each test group. This control contains peptide only in water or buffer at a similar final volume of 400 μl. Spectra for the control are collected initially (first run) and at the end of the test (final run) to ensure that the peptide has not undergone extensive aggregation during the course of the assay. Spectra for the controls are used to compare with the measurements obtained with the treated samples.
Make fresh 1 mg/mL stock solution of IAPP in 10 mM phosphate buffer, pH 7. Add desired amount of compound to achieve a 1:10 molar ratio in 10 mM phosphate buffer, pH 7. Incubate for 3 days at room temperature. Make up to final volume of 400 μL with 10 mM phosphate buffer, pH 7. The pH of the final assay solution is measured to ensure there is no fluctuation and the spectrum is accumulated using the parameters as shown above.
A similar control is run for comparative purposes.
Plots of the spectra (control and treated) are individually assembled and the changes in ellipticity at 218 nm are examined. This minimum is directly correlated with the amount of β-sheet present in the sample. Changes in either a positive or negative direction are noted and a relative value (“active” or “not active”) assigned to the compound as a measure of activity. In a subsequent experiment with the compounds at a molar ratio of 1:5 [ peptide:compound], the degree of randomness was noted, an indication of the ability of the compounds to prevent amyloid aggregation. A more positive number indicates less β-sheet formation. The ability of a compound to prevent β-sheet formation for at least 24 h is important, as the non-aggregated amyloid fibrils will be excreted in the soluble form. In the control noted below, the decrease in CD (mdegs) may indicate that some of the peptide is aggregating under these conditions.

Compound | Conformation at 24 h (IAPP [2]) | Conformation at 48 h (IAPP [2]) | CD at 48 h (IAPP [2]) [mdegs] | Conformation at T0 (IAPP [2]) | CD at 24 h (IAPP [2]) | relative inhibition compared to Aβ alone, incubation time 0 h (Aβ(1-40)) | relative inhibition compared to Aβ alone, incubation time 19 h (Aβ(1-40)) | relative inhibition compared to Aβ alone, incubation time 43 h (Aβ(1-40)) | IAPP-associated fibril assembly (ThT fluorescence) (IAPP [1]) | Activity (change in ellipticity at 218 nm) (IAPP [2])
NCC(O)CS(=O)(=O)O (stereo not shown) [LVXVI, 3-amino-2-hydroxy-1-propanesulfonic acid] | – | – | – | – | – | + (+: 0-25%) | +++ (+++: 50-75%) | ++ (++: 25-50%) | inhibit or prevent IAPP-associated fibril assembly | –
O=S(=O)(O)CCCN1CC=C(c2ccccc2)CC1 [LVXV, 4-Phenyl-1-(3′-sulfopropyl)-1,2,3,6-tetrahydropyridine] | Random | β | −1.8 | Random | – | + (+: 0-25%) | ++++ (++++: 75-100%) | ++ (++: 25-50%) | inhibit or prevent IAPP-associated fibril assembly | –
Cl.c1ccc2c(c1)CCNC2 [LVIX, 1,2,3,4-tetrahydroisoquinoline, hydrochloride] | β | β | −1.3 | Random | (−1.5) mdegs | – | – | – | inhibit or prevent IAPP-associated fibril assembly | Active
O=S(=O)(O)NC1CCCCC1 [LVXI, cyclohexylsulfamic acid] | β | β | −0.8 | Random | (−1.1) mdegs | – | – | – | inhibit or prevent IAPP-associated fibril assembly | Active

More lines, main results first:

Conformation at 24 h (IAPP [2]) | Conformation at 48 h (IAPP [2]) | CD at 48 h (IAPP [2]) [mdegs] | Conformation at T0 (IAPP [2]) | CD at 24 h (IAPP [2]) | Compound | relative inhibition compared to Aβ alone, incubation time 0 h (Aβ(1-40)) | relative inhibition compared to Aβ alone, incubation time 19 h (Aβ(1-40)) | relative inhibition compared to Aβ alone, incubation time 43 h (Aβ(1-40)) | IAPP-associated fibril assembly (ThT fluorescence) (IAPP [1]) | Activity (change in ellipticity at 218 nm) (IAPP [2])
Random | β | −1.7 | Random | – | O=S(=O)(O)CCCNCCCO [LVX, 3-(3-hydroxy-1-propyl)amino-1-propanesulfonic acid] | – | – | – | inhibit or prevent IAPP-associated fibril assembly | –
β | β | −1.5 | Random | (−1.7) mdegs | CN(C)CCCS(=O)(=O)O [LVXVII, 3-dimethylamino-1-propanesulfonic acid] | – | – | – | inhibit or prevent IAPP-associated fibril assembly | –
